{"source": "patent US20080227829A1", "about": "“Neurogenic compounds” (priority 2007, published 2008)", "key": {"[1]": {"test_system": "mice", "test": "Object recognition, visual paired comparison task (VPC)", "assay_type": "in vivo", "procedure": "Each mouse receiving either apigenin 25 mg/kg or Tween 80:0.9% NaCl (control) solutions was administered an i.p. injection of either drug or control for 7 days, after which they were trained and tested on visual paired comparison task (VPC) behavioral assay. The paradigm consisted of habituation to the experimental room for two hours prior to the experiment on Days 1 and 2. After habituation on Day 1, mice were given a five minute exposure to the testing chamber, followed by a thirty second exploration of two identical objects (familiarization training). Twenty-four hours after the familiarization training, mice were once again re-habituated to the room and testing chamber for two hours and one minute, respectively. After re-habituation mice were placed back into the testing chamber and allowed to explore a familiar and novel object for five minutes. Object exploration times were measured for both familiar and novel objects on Days 1 and 2. Both objects were identical, but the “novel” object was in a different location."}, "[2]": {"test_system": "dentate gyrus", "test": "BrdU/NeuN/GFAP phenotyping of newly dividing cells (neurogenesis) in the dentate gyrus", "assay_type": "in vivo, mice", "details": "for number of BrdU+ cells co-labeled with NeuN (new neurons) in the dentate gyrus: 25 mg/kg i.p. 42 days, runners, vs all other groups, p<0.001", "excerpt": "After the long-term study of Example 1 and all behavioral testing was concluded (Day 42), mice were perfused using 4% paraformaldehyde and their brain tissue was extracted. Brain tissue was sectioned and stained for BrdU/DAB quantification of dividing cells. A second immunofluorescence stain was used for phenotyping of the newly dividing cells. Brain sections were also taken and stained with Brdu/NeuN/GFAP. Phenotype analysis was completed to determine the percentage of dividing cells co-labeled with NeuN, a marker used to identify mature neurons. Using the percentage, it was possible to calculate the total number of BrdU/NeuN co-labeled cells in the dentate gyrus."}, "[3]": {"test_system": "dentate gyrus", "test": "BrdU/DAB quantification of dividing cells in the dentate gyrus after long-term study", "assay_type": "in vivo, mice", "details": "for number of dividing cells (BrdU+) in the dentate gyrus: 25 mg/kg i.p. 42 days; for number of dividing cells (BrdU+) in the dentate gyrus, overall statement: running and non-running groups", "procedure": "Injections were administered intraperitoneally (i.p.) for forty-two days total. In addition to test injections, daily i.p. injections of 5-bromo-2-deoxyuridine (BrdU) [10 mg/ml] were administered for the first eight days at a dose of 50 mg/kg. Within each test group, eight mice were randomly selected to receive running exercise. These thirty-two mice (eight mice per injection group) were transferred daily (on Days 1-40 of the study) from their normal static housing to an automated voluntary running wheel cage for two hours a day. Non-running mice remained in their static cages throughout the study. After the long-term study of Example 1 and all behavioral testing was concluded (Day 42), mice were perfused using 4% paraformaldehyde and their brain tissue was extracted. Brain tissue was sectioned and stained for BrdU/DAB quantification of dividing cells. A second immunofluorescence stain was used for phenotyping of the newly dividing cells. Brain sections were also taken and stained with Brdu/NeuN/GFAP. Phenotype analysis was completed to determine the percentage of dividing cells co-labeled with NeuN, a marker used to identify mature neurons. Using the percentage, it was possible to calculate the total number of BrdU/NeuN co-labeled cells in the dentate gyrus."}, "[4]": {"test_system": "mice", "test": "Morris water maze (acquisition training and probe trial), long-term injection study", "assay_type": "in vivo", "procedure": "A six-week study was conducted in which apigenin was administered by injection to mice at two different doses in conjunction with or without daily voluntary exercise (running). Behavioral testing was administered after 30 days of injections using the Morris water maze and object recognition test. Apigenin was dissolved in [10:90] Tween 80: 0.9% NaCl. All compounds were purchased from commercial sources. Aliquots of Tween 80: 0.9% NaCl solutions were used for testing in the in vivo model. Sixty-four mice (age seven wks) were divided into four test groups (sixteen per group) and received either: Injections were administered intraperitoneally (i.p.) for forty-two days total. In addition to test injections, daily i.p. injections of 5-bromo-2-deoxyuridine (BrdU) [10 mg/ml] were administered for the first eight days at a dose of 50 mg/kg. Within each test group, eight mice were randomly selected to receive running exercise. These thirty-two mice (eight mice per injection group) were transferred daily (on Days 1-40 of the study) from their normal static housing to an automated voluntary running wheel cage for two hours a day. Non-running mice remained in their static cages throughout the study. On Day 31, all mice began acquisition training on the Morris water maze immediately following their i.p. injection. See, e.g., Morris, Developments of a water-maze procedure for studying spatial learning in the rat, J. Neurosci. Methods, 11(1) (1984), hereby incorporated herein by reference. Mice were trained for nine consecutive days, receiving two trials a day using a hidden platform paradigm. The platform was located in the northwest (NW) quadrant of the water maze. To measure the effect of apigenin (with or without exercise) on learning, latency to platform was recorded for each trial. After daily training on the water maze, non-running mice were returned to their normal static housing while running mice were placed into their running wheel cages for two hours. On Day 9 of the water maze training, the mice received a probe trial 4 hours after the last training. During the probe trial the platform was removed and retention of memory of the target NW quadrant was recorded."}}, "note": "Entries after “also recorded” stand apart in the source; their conditions may differ.", "data": [{"molecule": "O=c1cc(-c2ccc(O)cc2)oc2cc(O)cc(O)c12", "note": "[apigenin]", "values": [{"measurement": "difference between injection groups during novel testing", "setting": "[1]; 25 mg/kg i.p. for 7 days vs Tween 80:0.9% NaCl control", "result": "No significant differences"}, {"measurement": "preference for the novel object (object exploration time)", "setting": "[1]; 25 mg/kg i.p. for 7 days, T-test t=0.0008", "result": "significant preference for the novel object"}, {"measurement": "number of BrdU+ cells co-labeled with NeuN (new neurons) in the dentate gyrus", "setting": "[2]", "result": "significantly higher number of new neurons than all other mice in the study"}, {"measurement": "number of BrdU+ cells co-labeled with NeuN (new neurons) in the dentate gyrus", "setting": "[2]; listed as Apigenin", "result": "significantly more new neurons than all other groups; also recorded: greatest increase in neurogenesis"}, {"measurement": "differentiation of the dividing cells into neurons", "setting": "[2]; overall statement", "result": "increases"}, {"measurement": "number of dividing cells (BrdU+) in the dentate gyrus", "setting": "[3]; non-runners, vs control non-runners and apigenin 12.5 mg/kg non-runners, p<0.01", "result": "significant increase in the number of dividing cells"}, {"measurement": "number of dividing cells (BrdU+) in the dentate gyrus", "setting": "[3]; runners, vs running control, p<0.05", "result": "significantly more dividing cells"}, {"measurement": "number of dividing cells (BrdU+) in the dentate gyrus, overall statement", "setting": "[3]", "result": "increases"}, {"measurement": "number of dividing cells (BrdU+) in the dentate gyrus, overall statement", "setting": "[3]; listed as Apigenin", "result": "increased BrdU labeling in both running and non-running groups"}, {"measurement": "probe trial: frequency into target quadrant", "setting": "[4]; 12.5 mg/kg i.p., non-runners, p<0.06", "result": "trend toward significance"}, {"measurement": "latency to platform (acquisition phase)", "setting": "[4]; 12.5 mg/kg i.p., non-runners, vs control", "result": "No significant differences"}, {"measurement": "probe trial: frequency into target quadrant", "setting": "[4]; 12.5 mg/kg i.p., runners, p<0.001", "result": "significant preference for the target quadrant"}, {"measurement": "latency to platform (acquisition phase)", "setting": "[4]; 12.5 mg/kg i.p., runners, vs control runners and control non-runners, p<0.05", "result": "significantly shorter latencies"}, {"measurement": "probe trial: frequency into target quadrant", "setting": "[4]; 25 mg/kg i.p., non-runners, p<0.05", "result": "significant preference for the target quadrant"}, {"measurement": "latency to platform (acquisition phase)", "setting": "[4]; 25 mg/kg i.p., non-runners, vs control runners, p<0.05", "result": "significantly different from the control runners"}, {"measurement": "probe trial: frequency into target quadrant", "setting": "[4]; 25 mg/kg i.p., runners, p<0.06", "result": "strong preference for entering the target quadrant more frequently than other quadrants, although this is not statistically significant"}, {"measurement": "latency to platform (acquisition phase)", "setting": "[4]; 25 mg/kg i.p., runners, vs control runners and control non-runners, p<0.05", "result": "significantly shorter latencies"}, {"measurement": "probe trial: total duration of time spent in the quadrants", "setting": "[4]; 12.5 and 25 mg/kg i.p., runners and non-runners", "result": "no significant differences among the groups"}, {"measurement": "probe trial: frequency in quadrants (FIG. 1 legend)", "setting": "[4]; apigenin treated mice, runners and non-runners", "result": "entered the target quadrant more frequently than all other quadrants"}, {"measurement": "learning (summary of water maze)", "setting": "[4]; with or without exercise", "result": "increases learning with or without exercise"}]}]}
